Reference: BindingDB's records for doi:10.7270/Q2NC5ZS3 (Burnham Center For Chemical Genomics, 2012)

Target: T1, Corticotropin-releasing factor-binding protein (Homo sapiens, UniProt P24387)
T1 sequence (P24387 whole entry): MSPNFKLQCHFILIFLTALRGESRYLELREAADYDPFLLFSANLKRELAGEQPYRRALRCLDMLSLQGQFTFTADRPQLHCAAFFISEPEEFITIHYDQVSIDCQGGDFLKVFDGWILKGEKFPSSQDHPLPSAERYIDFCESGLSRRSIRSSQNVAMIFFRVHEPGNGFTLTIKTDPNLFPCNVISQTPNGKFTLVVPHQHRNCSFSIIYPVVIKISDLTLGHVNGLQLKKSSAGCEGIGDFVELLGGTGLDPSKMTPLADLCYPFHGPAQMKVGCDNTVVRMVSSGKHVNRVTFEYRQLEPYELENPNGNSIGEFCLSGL

| IC50 [µM] | SMILES |
| --- | --- |
| 9.4 | COc1ccc(C(C)N=Nc2ccc([N+](=O)[O-])cc2S(=O)(=O)Nc2ccccc2C(=O)O)c(OC)c1 (centres undefined) [MLS002249507] |
| 15.5 | Cc1ccc(-n2[nH]c(C)c(CN=Nc3ccc([N+](=O)[O-])cc3[N+](=O)[O-])c2=O)cc1 [SMR000171521] |
| 11.3 | N#CC(C(=O)Cc1cccc2ccccc12)c1nc2ccccc2s1 (centres undefined) [(2Z)-2-(3H-1,3-benzothiazol-2-ylidene)-4-naphthalen-1-yl-3-oxobutanenitrile] |
| > 20 | Cc1cc(=O)oc2c1ccc1oc(C(N=O)c3ccccc3)c(C)c12 (centres undefined) [4,9-dimethyl-8-(N-oxidanyl-C-phenyl-carbonimidoyl)furo[2,3-h]chromen-2-one] |
| > 20 | CN1c2ccccc2C(=O)C(C(=S)Nc2ccc(Cl)cc2)S1(=O)=O (centres undefined) [N-(4-chlorophenyl)-4-hydroxy-1-methyl-2,2-dioxo-1,2-dihydro-2lambda~6~,1-benzothiazine-3-carbothioamide] |
| 17.5 | O=NCc1ccc(Oc2ccc(F)cc2)c([N+](=O)[O-])c1 [N-[[4-(4-fluorophenoxy)-3-nitrophenyl]methylidene]hydroxylamine] |
| 1 | Cn1c(O)c(N=Nc2ccc([N+](=O)[O-])cc2)sc1=S [MLS002608645] |
| > 20 | COC(=O)c1ccc(C(=O)C(C#N)c2nc3ccccc3s2)cc1 (centres undefined) [4-[(2Z)-2-(3H-1,3-benzothiazol-2-ylidene)-2-cyano-1-oxoethyl]benzoic acid methyl ester] |
| > 20 | COc1ccc(/C=N/OCC(=O)NNC2=c3cc(Br)ccc3=NC2=O)cc1 [MLS000587830] |
| > 20 | Cc1ccc2nc(N3C(=O)C(=O)C(C(=O)c4ccco4)C3c3cccc(O)c3)sc2c1 (centres undefined) |
| > 20 | O=C(O)c1ccc(CN=Nc2cccc(C(F)(F)F)c2)cc1 |
| > 20 | N#CC(C(=O)COc1ccc(Cl)cc1)c1nc2ccccc2s1 (centres undefined) |
| 10.4 | Cc1ccc2nc(N3C(=O)C(=O)C(C(=O)c4ccc(C)o4)C3c3cccc(O)c3)sc2c1 (centres undefined) [4-hydroxy-2-(3-hydroxyphenyl)-1-(6-methyl-1,3-benzothiazol-2-yl)-3-(5-methylfuran-2-carbonyl)-2H-pyrrol-5-one] |
| > 20 | Cc1ccc(S(=O)(=O)N(CC(=O)NNC2=c3ccccc3=NC2=O)c2ccc(C)c(C)c2)cc1 [SMR000207608] |
